Measurements from patent publication US7179825B2, “Retinoic acid mimetic anilides” (Janssen Pharmaceutica N.V., priority 1997, dated 2007).

Key:
[1] = system: metabolism of retinoic acid in human breast cancer cells; test: Inhibition of retinoic acid (RA) metabolism (Example C.1); type: cell-based; details: MCF-7 human breast cancer cells, 3H-RA as substrate, concentration needed to reduce the amount of metabolites to 50% of the control
Method in brief: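 Test compound (in 1% DMSO) added at several concentrations to MCF-7 cell suspensions fed ³H-RA, after RA induction of metabolism one day earlier. Scintillation counting of the separated polar metabolite fraction; IC50 = concentration giving 50% of control metabolite level.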

Ovariectomized rats = test: Vaginal keratinization test on ovariectomized rats (Example C.2); type: in vivo; details: estradiol undecylate induced keratinization, per os once daily on days 1-3, active dose = 50% of rats show complete suppression; for minimal effective dose: Rattus norvegicus, po, read-out: LAD (lowest active dose)
Method in brief: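 Value is the lowest oral dose (mg/kg) at which half of tested rats show complete suppression of estradiol undecylate-induced vaginal keratinization by histology. Ovariectomized rats received 100 μg/100 g estradiol undecylate s.c., then compound or PEG 200 vehicle p.o. daily for three days; sacrifice one day later.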

Compound | IC50 [1] | LAD (lowest active dose) (Ovariectomized rats) | IC50 ([1]; MCF7) | minimal effective dose (Ovariectomized rats)
C/C(=C\c1ccc(F)c(Br)c1)C(=O)Nc1ccc(C(C(C)C)n2ccnc2)cc1 (racemic) [Compound 608] | 6.61 nM | >10.00 mg/kg |  | 
C/C(=C\c1ccc(C(F)(F)F)cc1F)C(=O)Nc1ccc(C(C(C)C)n2ccnc2)cc1 (racemic) [Compound 609] | 10.9 nM | 10.00 mg/kg |  | 
C/C(=C\c1ccc([N+](=O)[O-])cc1)C(=O)Nc1ccc(C(C(C)C)n2ccnc2)cc1 (racemic) [Compound 610] | 6.53 nM | >10.00 mg/kg |  | 
C/C(=C\c1ccc(N)cc1)C(=O)Nc1ccc(C(C(C)C)n2ccnc2)cc1 (racemic) [Compound 611, (±)-(E)-2-[(4-aminophenyl)methylene]-N-[4-[1-(1H-imidazol-1-yl)-2-methylpropyl]phenyl]propanamide] |  |  | 3.42 nM | 10 mg/kg
O=C(Cc1ccccc1)Nc1ccc(C(c2cccc(C(F)(F)F)c2)n2cncn2)cc1 (racemic) [Compound 614] | 278 nM | >20.00 mg/kg |  | 
O=C(/C=C/c1ccccc1)Nc1ccc(C(c2cccc(F)c2)n2cncn2)cc1 (racemic) [Compound 618] | 15.7 nM | >20.00 mg/kg |  | 
O=C(Cc1ccccc1)Nc1ccc(C(c2cccc(F)c2)n2cncn2)cc1 (racemic) [Compound 619] | 35.7 nM | >20.00 mg/kg |  | 
CCC(CC)C(c1ccc(NC(=O)C2Oc3ccccc3O2)cc1)n1cncn1 (racemic) [Compound 621] | 1.25 nM | 1.25 mg/kg |  | 
CC(C)(C)CC(c1ccc(NC(=O)Cc2ccc(Cl)cc2)cc1)n1cncn1 (racemic) [Compound 623] | 1.38 nM | >5.00 mg/kg |  | 
CCCC(C)C(c1ccc(NC(=O)Cc2ccc(OC)c(OC)c2)cc1)n1cncn1 (racemic) [Compound 639] | 1.68 nM | 2.50 mg/kg |  | 
CCCC(CCC)C(c1ccc(NC(=O)Cc2ccc(OC)c(OC)c2)cc1)n1cncn1 (racemic) [Compound 644] | 0.296 nM | 2.50 mg/kg |  | 
CC(C)C(c1ccc(NC(=O)Cc2cccc(Cl)c2)cc1)n1ccnc1 (racemic) [Compound 652] | > 100 nM | 10.00 mg/kg |  | 
CC(C)C(c1ccc(NC(=O)Cc2ccc(F)cc2)cc1)n1ccnc1 (racemic) [Compound 653] | 1.34 nM | 5.00 mg/kg |  | 
CC(C)C(c1ccc(NC(=O)Cc2cccc(C(F)(F)F)c2)cc1)n1ccnc1 (racemic) [Compound 654] | 2.34 nM | 5.00 mg/kg |  | 
CC(C)C(c1ccc(NC(=O)C(c2ccccc2)c2ccccc2)cc1)n1ccnc1 (racemic) [Compound 655] | 16.1 nM | >10.00 mg/kg |  | 
CC(C)C(C(=O)Nc1ccc(C(C(C)C)n2ccnc2)cc1)c1ccccc1 (racemic) [Compound 658] | 5.48 nM | >10.00 mg/kg |  | 
CCOc1ccc(CC(=O)Nc2ccc(C(C(C)C)n3ccnc3)cc2)cc1 (racemic) [Compound 663] | 1.95 nM | 2.50 mg/kg |  | 
COc1cccc(CC(=O)Nc2ccc(C(C(C)C)n3ccnc3)cc2)c1 (racemic) [Compound 665] | 5.91 nM | 2.50 mg/kg |  | 
Cc1ccc(CC(=O)Nc2ccc(C(C(C)C)n3ccnc3)cc2)cc1 (racemic) [Compound 666] | 14.5 nM | 2.50 mg/kg |  | 
CC(C)C(c1ccc(NC(=O)Cc2cccc(O)c2)cc1)n1ccnc1 (racemic) [Compound 667] | 1.57 nM | 5.00 mg/kg |  | 
C/C(=C\c1ccccc1)C(=O)Nc1ccc(C(c2cccnc2)C(C)C)cc1 (racemic) [Compound 679] | > 1000 nM | >20.00 mg/kg |  | 
C/C(=C\c1ccccc1)C(=O)Nc1ccc(C(c2ccncc2)C(C)C)cc1 (racemic) [Compound 681] | > 1000 nM | >20.00 mg/kg |  | 
CC(C)C(c1ccc(NC(=O)Cc2ccc(Cl)cc2)cc1)c1cccnc1 (racemic) [Compound 686] | 43.1 nM | >10.00 mg/kg |  | 
CC(C)C(c1ccc(NC(=O)Nc2cccc(F)c2)cc1)c1cccnc1 (racemic) [Compound 690] | > 100 nM | >10.00 mg/kg |  | 
CC(C)C(c1ccncc1)c1ccc(NC(=O)Nc2cccc(F)c2)cc1 (racemic) [Compound 692] | 38 nM | >10.00 mg/kg |  | 
CNC(=S)Nc1ccc(C(C(C)C)n2ccnc2)cc1 (racemic) [Compound 696] | 8.07 nM | >10.00 mg/kg |  | 
CC(C)C(c1ccc(NC(=S)Nc2ccccc2)cc1)n1ccnc1 (racemic) [Compound 697] | 17.1 nM | 10.00 mg/kg |  | 

Compound | IC50 [1] | LAD (lowest active dose) (Ovariectomized rats) | IC50 ([1]; MCF7) | minimal effective dose (Ovariectomized rats)
CC(C)C(c1ccc(NC(=S)NC(=O)c2ccccc2)cc1)n1ccnc1 (racemic) [Compound 698, (±)-N-benzoyl-N′-[4-[1-(1H-imidazol-1-yl)-2-methylpropyl]phenyl]thiourea] |  |  | 39.6 nM | 20 mg/kg
CC(C)C(c1ccc(NC(=S)Nc2ccccc2F)cc1)n1ccnc1 (racemic) [Compound 700] | 12 nM | 5.00 mg/kg |  | 
CCOc1ccc(NC(=O)Nc2ccc(C(C(C)C)n3ccnc3)cc2)cc1 (racemic) [Compound 707] | 13 nM | 5.00 mg/kg |  | 
COc1ccc(NC(=O)Nc2ccc(C(C(C)C)n3ccnc3)cc2)cc1OC (racemic) [Compound 708] | 1.61 nM | >5.00 mg/kg |  | 
O=C(Nc1ccc(C(c2cccc(C(F)(F)F)c2)n2ccnc2)cc1)Nc1cc(F)ccc1F (racemic) [Compound 709] | 2.4 nM | 5.00 mg/kg |  | 
CCC(CC)C(c1ccc(NC(=O)Nc2cc(F)ccc2F)cc1)n1ccnc1 (racemic) [Compound 710] | 0.188 nM | 2.50 mg/kg |  | 
O=C(Nc1ccc(C(c2cccc(C(F)(F)F)c2)n2cncn2)cc1)Nc1cccc(F)c1 (racemic) [Compound 711] | > 100 nM | 5.00 mg/kg |  | 
CCC(CC)C(c1ccc(NC(=O)Nc2cc(F)ccc2F)cc1)n1cncn1 (racemic) [Compound 712] | 0.0043 nM | 5.00 mg/kg |  | 
CCC(CC)C(c1ccc(NC(=O)Nc2ccccc2F)cc1)n1ccnc1 (racemic) [Compound 713] | 1.38 nM | 2.50 mg/kg |  | 
CCC(CC)C(c1ccc(NC(=O)Nc2ccccc2F)cc1)n1cncn1 (racemic) [Compound 715] | 0.154 nM | >2.50 mg/kg |  | 
CCC(CC)C(c1ccc(NC(=O)Nc2ccc(OC)c(OC)c2)cc1)n1cncn1 (racemic) [Compound 718] | 0.133 nM | 2.50 mg/kg |  | 
COc1ccc(NC(=O)Nc2ccc(C(C(C)C)n3ccnc3)cc2)cc1 (racemic) [Compound 722] | 4.14 nM | 5.00 mg/kg |  | 
CCC(CC)C(c1ccc(NC(=O)Nc2cccc(F)c2)cc1)n1cncn1 (racemic) [Compound 723] | 1.13 nM | 5.00 mg/kg |  | 
CCC(CC)C(c1ccc(NC(=O)Nc2cccc(F)c2)cc1)n1ccnc1 (racemic) [Compound 724] | 1.18 nM | 2.50 mg/kg |  | 
CC(C)C(c1ccc(NC(=O)Nc2cccc(F)c2)cc1)n1cncn1 (racemic) [Compound 725] | 3.29 nM | 5.00 mg/kg |  | 
CC(C)C(c1ccc(NC(=O)Nc2ccccc2F)cc1)n1ccnc1 (racemic) [Compound 726] | 3.71 nM | 5.00 mg/kg |  | 
CC(C)C(c1ccc(NC(=O)Nc2cccc(N)c2)cc1)n1ccnc1 (racemic) [Compound 727] | 1.64 nM | >10.00 mg/kg |  | 
CC(C)C(c1ccc(NC(=O)Nc2cc(F)ccc2F)cc1)n1ccnc1 (racemic) [Compound 728] | 1.41 nM | 5.00 mg/kg |  | 
O=C(Nc1ccc(C(c2cccc(C(F)(F)F)c2)n2ccnc2)cc1)Nc1cccc(F)c1 (racemic) [Compound 729] | > 100 nM | 2.50 mg/kg |  | 
CC(C)C(c1ccc(NC(=O)Nc2cccc(C(F)(F)F)c2)cc1)n1ccnc1 (racemic) [Compound 730] | 15.9 nM | >10.00 mg/kg |  | 
CC(C)C(c1ccc(NC(=O)Nc2ccc(Cl)c(Cl)c2)cc1)n1ccnc1 (racemic) [Compound 732] | 19.3 nM | >10.00 mg/kg |  | 
COc1cccc(NC(=O)Nc2ccc(C(C(C)C)n3ccnc3)cc2)c1 (racemic) [Compound 733] | 2.41 nM | >10.00 mg/kg |  | 
CC(C)C(c1ccc(NC(=O)Nc2ccc(F)cc2F)cc1)n1ccnc1 (racemic) [Compound 734] | 2.25 nM | 10.00 mg/kg |  | 
O=C(Nc1ccc(C(c2ccccc2)n2ccnc2)cc1)Nc1cccc(F)c1 (racemic) [Compound 735] | > 100 nM | 10.00 mg/kg |  | 
Cc1cccc(NC(=O)Nc2ccc(C(C(C)C)n3ccnc3)cc2)c1 (racemic) [Compound 736] | 7.45 nM | >10.00 mg/kg |  | 
CC(C)C(c1ccc(NC(=O)Nc2cccc([N+](=O)[O-])c2)cc1)n1ccnc1 (racemic) [Compound 737] | 2.36 nM | >10.00 mg/kg |  | 
